In patent US8562949B2, “Radiolabeled dihydrotetrabenazine derivatives and their use as imaging agents” (The Trustees of the University of Pennsylvania, priority 2006, dated 2013):
pKd, pKi: −log10 of the molar value.

Legend:
[1] = target: VMAT2 (Mus musculus, UniProt Q8BRU6); test: In vitro autoradiography of mouse brain sections; type: binding
[2] = Uptake in diabetic mice (FIG. 6); type: in vivo
[3] = target: VMAT2 (Rattus norvegicus, UniProt Q01827); test: Competition for [3H](±)TBZ binding in rat striatal homogenates; parameters: The basal forebrain regions of rat and mouse brains were then dissected; from tissue; host or cells: rat striatum / basal forebrain homogenate; conditions: [3H](±)TBZ 1.0-1.5 nM, Kd […] used for calculation
Chain of VMAT2 (Rattus norvegicus, UniProt Q01827) (Q01827 whole entry): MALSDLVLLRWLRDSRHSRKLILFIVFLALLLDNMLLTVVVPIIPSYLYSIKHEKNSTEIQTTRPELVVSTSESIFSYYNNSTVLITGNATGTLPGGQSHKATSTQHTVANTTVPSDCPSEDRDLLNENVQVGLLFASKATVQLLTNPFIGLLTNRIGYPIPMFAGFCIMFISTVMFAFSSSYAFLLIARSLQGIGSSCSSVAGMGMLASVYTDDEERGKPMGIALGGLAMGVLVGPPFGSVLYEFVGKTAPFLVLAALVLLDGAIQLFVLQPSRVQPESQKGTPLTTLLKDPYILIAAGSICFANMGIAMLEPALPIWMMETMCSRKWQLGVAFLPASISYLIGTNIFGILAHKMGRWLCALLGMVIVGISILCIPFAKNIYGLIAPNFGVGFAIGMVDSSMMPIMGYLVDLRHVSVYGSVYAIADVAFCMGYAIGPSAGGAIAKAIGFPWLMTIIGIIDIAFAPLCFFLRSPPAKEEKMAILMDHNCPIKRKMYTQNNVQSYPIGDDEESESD

[4] = target: monoamine transporter (UniProt Q27963); conditions: membranes of chromaffin granules and brain tissue samples; cited from earlier work

Chain of VMAT2 (Mus musculus, UniProt Q8BRU6) (Q8BRU6 whole entry): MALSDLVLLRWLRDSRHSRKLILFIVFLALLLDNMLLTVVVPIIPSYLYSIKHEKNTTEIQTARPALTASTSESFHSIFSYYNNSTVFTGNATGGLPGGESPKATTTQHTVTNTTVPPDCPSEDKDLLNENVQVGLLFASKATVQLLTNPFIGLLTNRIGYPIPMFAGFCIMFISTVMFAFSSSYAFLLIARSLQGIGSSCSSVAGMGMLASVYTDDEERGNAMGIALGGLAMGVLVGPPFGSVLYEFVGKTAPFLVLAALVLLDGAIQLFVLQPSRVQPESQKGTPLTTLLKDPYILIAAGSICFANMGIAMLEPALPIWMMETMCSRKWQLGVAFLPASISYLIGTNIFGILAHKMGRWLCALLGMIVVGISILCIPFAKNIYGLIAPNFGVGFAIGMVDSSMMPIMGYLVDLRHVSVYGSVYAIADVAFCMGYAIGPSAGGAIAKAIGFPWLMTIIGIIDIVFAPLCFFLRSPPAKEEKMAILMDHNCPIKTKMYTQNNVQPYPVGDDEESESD

COc1cc2c(cc1OCCCF)CCN1CC(CC(C)C)C(O)CC21 (racemic) [[^18F]6b]
regional labeling in presence of 1 μM (±)TBZ [1]: completely eliminated

COc1cc2c(cc1OCCCF)CCN1CC(CC(C)C)C(O)CC21 (stereo not drawn) [FP-(+)-DTBZ]
uptake in diabetic mice [2]: reduced | pKi [3]: 10.00

COc1cc2c(cc1OC)C1CC(O)C(CC(C)C)CN1CC2 (stereo not shown) [[^3H]dihydro-TBZ, 2-hydroxy-3-(2-methylpropyl)-9,10-dimethoxy-1,3,4,6,7,11b-hexahydro-2H-benzo[a]quinolizine]
pKd [4]: 8.05 to 8.70
